Measurements: patent publication US8877949B2, “Furo[3,2-g]chromene compounds and uses thereof” (Shenyang Pharmaceutical University, priority 2010, dated 2014)

How the values were obtained:
[1] = tested on: MCF-7 cells or BG-1 cells; assay: Effect on the proliferation of breast cancer cells (MCF-7 or BG-1 cells in nude mice); format: in vivo; conditions: Mus musculus; n = 2
Description: Using standard pharmacological experimental methods easily found in reference documents, the capabilities of the inventive compounds to treat and inhibit different types of malignant tumors or over-proliferation diseases can be evaluated.
Spayed athymic nu/nu (nude) mice were used. One day before the injection of tumor cells, a release-controlled pill containing 0.36-1.7 mg of β estradiol (60- or 90-day release) or a placebo was implanted into the animal. The pill was introduced into the endo-sculpture zone subcutaneously using a 10-scaled precise rotor. Next, 1×10^7 MCF-7 cells or 1×10^7 BG-1 cells were injected into breast tissues of the mice subcutaneously. The cells were mixed with matrigel with a same volume, and the latter was a liquid preparation of basilar membrane substrate, so as to facilitate tumor construction. One day after the implantation of the tumor cells (i.e. an inhibition protocol), or after the tumor had reached a certain volume (i.e. a treatment protocol), the tested compounds could be evaluated through administration. The saline containing the compound in a 1% Tween-80 vehicle was administered intraperitoneally or orally every day. The volumes of the tumors were evaluated every 3 or 7 days.

MCF-7/ERE = MCF-7/ERE anti-proliferation assay (ERE-tk-luciferase); format: cell-based; conditions: Homo sapiens, MCF7; n = 2
Description: Stock solutions (usually, 0.1 M) of the test compounds were prepared in DMSO, and then diluted by 10-100 folds in DMSO, so as to achieve the working solutions with a concentration of 1-10 mM. The stock solutions (in DMSO) were stored at 4° C. (0.1 M) or −20° C. (<0.1 M). MCF-7 cells were passaged twice per week using a growth medium (i.e. a D-MEM/F-12 medium). The cells were kept in a 37° C., aerated flask in an incubator filled with 5% CO2/95% humid air. One day before the treatment, a 96-well titration plate was coated with the cells in the medium, 25000 cells/well, and then cultured at 37° C., overnight.
The cells were transfected with 50 μL/well of 1/10 diluted adenovirus 5-ERE-tk-luciferase in the test medium (i.e. a D-MEM/F-12 medium without phenolsulfonphthalein) for 2 h. Then each well was washed once with 150μλ of the test medium. At last, the cells were divided into several replicates and treated at 37° C. for 24 h, wherein 8 wells were treated with 150μλ/well vehicle (≦0.1% v/v DMSO) or the compound diluted by ≧1000 folds with the test medium.
A primary screen of the test compounds was conducted with a single dose of 1 μM, wherein the test compound was alone (an agonist mode) or in combination with 0.1 nM 17β estradiol (EC80: an antagonist mode). Each 96-well plate also contained a vehicle control group (0.1% v/v DMSO) and an agonist control group (0.1 or 1 nM 17β estradiol). In the agonist and/or antagonist mode, a dose-response experiment was conducted for the active compounds which were increased by logarithm of 10^−14˜10^−5 M. Based on these dose-response curves, EC50 and IC50 values were determined respectively. The final titration wells in each treatment groups contained 5 μL of 3×10^−5 M ICC-182780 (10^−6 M final concentration), as an ER antagonist control.
After the treatment, the cells were lysed in 25 μL/well of 1× cell-culture lytic agent (Promega Corporation) for 15 min. Cell lysate (20 μL) was transferred into a 96-well photometer plate. The luciferase activity was measured with 100 μL/well of the substrate for luciferase (Promega Corporation) in MicroLumat LB 96P photometer (EG&G Berthold). Before adding the substrate, a background measurement was performed for each well for 1 s. After adding the substrate, the luciferase activity was measured after 1 s delay and within 10 s. The data obtained from the photometer were analyzed by JMF software (SAS Institute). Using this program, the background reading of the luciferase activity in each well was subtracted, and then the average and standard deviation were calculated for each group of treatment.
The above luciferase data were subjected to a logarithmic transformation, and the weights of the transformed results which were far away from the median was reduced using Huber M-estimator. The transformed and weighted data were analyzed using JMF software, so as to conduct a one-way ANOVA (D test). The results of the compound treatment groups were compared with that of a vehicle control group in the agonist mode, or with that of a positive agonist control group in the antagonist mode (0.1 nM 17β-estradiol). […] In addition, EC50 and/or IC50 values were determined from a nonlinear dose-response curve using JMF software.

uteri = assay: Uterotrophic/anti-uterotrophic assay in juvenile rats (4 days); format: in vivo, rat; conditions: immature female Sprague-Dawley rats, i.p., dose not stated, n = 2
Description: The estrogen and anti-estrogen properties of the compound can be tested in the uterotrophic assay (4 days) in juvenile rats. Immature rats (Sprague-Dawley rats) (female, 18 days old) were divided into 6 test groups. All these animals were i.p. injected with 10 μg of the compound, 100 μg of the compound per day, (100 μg of the compound and 1 μg 176 estradiol), so as to investigate anti-estrogens; and treated with 1 μg of 176 estradiol, wherein 50% DMSO/50% saline was used as injection media. These animals were sacrificed by CO2 asphyxiation on Day 4. Their uteri were extracted, and excessive fats and all liquid were removed. Then the wet weight of the uteri was measured. A part of one corner of the uterus was separated and analyzed histologically. The rest part was used to isolate whole RNA, so as to evaluate the expression of complement component 3 gene.

[2] = tested on: LDL cell-mediated oxidation; assay: Inhibition of LDL oxidation, antioxidant activity (TBARS); format: cell-based, Swine; conditions: Sus scrofa; compound 5 μM, 12.5 μg/mL LDL, 37° C., 4 hours; n = 2; read-out: Oxidation inhibition rate
Description: Swine aortas were obtained from a slaughterhouse, washed, and then transferred into cold PBS. Epithelial cells were collected from the aortas. Particularly, in order to collect the epithelial cells, intercostal blood vessel of the aorta was knotted, and one end of the aorta was clamped with a forceps. Fresh 0.2% collagenase (Sigma Type I) which had been filtered for sterilization was placed into the blood vessel, and another end of the blood vessel was clamped with a forceps so as to form a closed system. The aortas were cultured at 37° C. for 15-20 min, then collagenase solution was collected and centrifuged for 5 min. The resultant precipitate was resuspended in 7 mL epithelial cell medium (i.e. a DMEM/Ham'S F12 medium without phenolsulfonphthalein but supplemented with carbon stripped FBS (5%)), then seeded in a 100 mm dish and cultured at 37° C., 5% CO2. Twenty minutes later, the cells were rinsed with PBS, and a fresh medium was added. The above process was repeated for 24 hours. After about one week, the cells were confluent. Usually, these epithelial cells were fed twice per week, and seeded with a ratio of 1:7 after the action of trypsin during confluence. In the case that the compound (5 μM) to be evaluated existed, 12.5 μg/mL LDL cell-mediated oxidation was carried out at 37° C. for 4 hours. The result was expressed as the percentage of oxidation inhibition, which was determined by analyzing free aldehyde by the TBARS (Thiobarbituric acid reactive substances) method.

Compound	IC50 [1]	IC50 (MCF-7/ERE)	percentage of weight gain of uteri (uteri)	inhibition at 5 µM [2]
O=C(c1ccc(OCC(=O)N2CCOCC2)cc1)c1oc2cc3c(cc2c1-c1ccc(O)cc1)CCCO3 [2-[4-(morpholine-2-oxo-ethoxy)benzoyl]-3-(4-hydroxyphenyl)-6,7-dihydrogen-5H-furo[3,2-g]chromene]	46.7 µM	4.9 µM	9.8%	12.4%
CCN(CC)CCOc1ccc(C(=O)c2oc3cc4c(cc3c2-c2ccc(O)cc2)CCCO4)cc1 [Example 56, 2-[4-(diethylaminoethoxy)benzoyl]-3-(4-hydroxyphenyl)-6,7-dihydrogen-5H-furo[3,2-g]chromene]	22.1 µM	13.5 µM	12.2%	5.1%
CN(C)CCOc1ccc(C(=O)c2oc3cc4c(cc3c2-c2ccc(O)cc2)CCCO4)cc1 [Example 58, 2-[4-(dimethylaminoethoxy)benzoyl]-3-(4-hydroxyphenyl)-6,7-dihydrogen-5H-furo[3,2-g]chromene]	4.6 µM	22.9 µM	0.6%	6.8%
O=C(c1ccc(OCC(=O)N2CCCCC2)cc1)c1oc2cc3c(cc2c1-c1ccc(O)cc1)CCCO3 [Example 60, 2-[4-(piperidine-2-oxo-ethoxy)benzoyl]-3-(4-hydroxyphenyl)-6,7-dihydrogen-5H-furo[3,2-g]chromene]	11.5 µM	5.6 µM	8.7%	22.6%
CCN(CC)C(=O)COc1ccc(C(=O)c2oc3cc4c(cc3c2-c2ccc(O)cc2)CCCO4)cc1 [Example 62, 2-[4-(diethylamino-2-oxo-ethoxy)benzoyl]-3-(4-hydroxyphenyl)-6,7-dihydrogen-5H-furo[3,2-g]chromene]	25.2 µM	42.3 µM	38.8%	36.8%
CN(C)C(=O)COc1ccc(C(=O)c2oc3cc4c(cc3c2-c2ccc(O)cc2)CCCO4)cc1 [Example 64, 2-[4-(dimethylamino-2-oxo-ethoxy)benzoyl]-3-(4-hydroxyphenyl)-6,7-dihydrogen-5H-furo[3,2-g]chromene]	5.6 µM	21.8 µM	26.2%	44.9%
